Reference: ChEMBL document CHEMBL1142377, “Discovery of a novel class of 1,3-dioxane-2-carboxylic acid derivatives as subtype-selective peroxisome proliferator-activated receptor alpha (PPARalpha) agonists” (Bioorg Med Chem Lett, 2008)
Values belong to the compound of their own block, whether it stands above or below them.

Tests used:
[1] = organism: Homo sapiens; test: Selectivity of human PPARalpha over human PPARdelta
[2] = test system: Mus musculus; test: (§1) Hypolipidemic effect on diabetic KKAy mouse model assessed as increase in HDL cholesterol level at 3 mg/kg, po QD for 4 days; assay type: functional
[3] = test system: Mus musculus; test: Hypoglycemic effect on diabetic KKAy mouse model assessed as reduction of plasma glucose level at 3 mg/kg, po QD for 4 days; assay type: functional; set-up: scale not given: the % may be the effect or the level left
[4] = target: T1, Peroxisome proliferator-activated receptor gamma (Mus musculus) (UniProt P37238); test: Agonist activity at mouse PPARgamma at 10 uM by transactivation assay; assay type: functional
T1 sequence (whole entry): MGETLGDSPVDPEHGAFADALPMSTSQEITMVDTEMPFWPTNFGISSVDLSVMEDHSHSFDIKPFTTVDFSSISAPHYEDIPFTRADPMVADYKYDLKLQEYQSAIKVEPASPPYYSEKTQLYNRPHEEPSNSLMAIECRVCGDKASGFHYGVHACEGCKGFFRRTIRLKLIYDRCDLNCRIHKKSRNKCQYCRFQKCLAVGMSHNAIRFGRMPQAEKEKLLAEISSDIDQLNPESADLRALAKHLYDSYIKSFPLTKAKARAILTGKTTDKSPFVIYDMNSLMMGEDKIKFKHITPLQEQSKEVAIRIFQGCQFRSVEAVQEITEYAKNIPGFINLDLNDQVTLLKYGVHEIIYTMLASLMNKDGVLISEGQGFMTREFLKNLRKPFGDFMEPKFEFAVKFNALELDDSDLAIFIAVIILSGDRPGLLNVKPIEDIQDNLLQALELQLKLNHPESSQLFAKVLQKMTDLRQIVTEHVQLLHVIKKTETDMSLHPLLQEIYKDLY

[5] = target: T2, Peroxisome proliferator-activated receptor delta (Homo sapiens) (UniProt Q03181); test: Agonist activity at human PPARdelta expressed in monkey CV1 cells at 10 uM by transactivation assay; assay type: functional, cell-based; settings: CV-1
T2 sequence (whole entry): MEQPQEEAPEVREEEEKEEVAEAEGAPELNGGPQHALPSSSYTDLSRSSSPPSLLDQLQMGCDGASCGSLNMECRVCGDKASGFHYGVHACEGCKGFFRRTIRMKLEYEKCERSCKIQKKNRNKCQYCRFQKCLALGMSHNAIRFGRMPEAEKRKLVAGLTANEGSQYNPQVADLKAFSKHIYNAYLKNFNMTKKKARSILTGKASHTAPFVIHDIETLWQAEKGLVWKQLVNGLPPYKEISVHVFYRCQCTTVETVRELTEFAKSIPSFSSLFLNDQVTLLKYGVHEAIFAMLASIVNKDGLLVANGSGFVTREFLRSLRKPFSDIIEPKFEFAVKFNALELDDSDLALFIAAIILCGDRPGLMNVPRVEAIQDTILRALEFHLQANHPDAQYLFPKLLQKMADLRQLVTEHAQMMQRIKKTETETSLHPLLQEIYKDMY

[6] = test system: Mus musculus; test: Hypoglycemic effect on diabetic KKAy mouse model assessed as reduction of plasma glucose level at 1 mg/kg, po QD for 4 days; assay type: functional; set-up: scale not given: the % may be the effect or the level left
[7] = test system: Mus musculus; test: Hypolipidemic effect on diabetic KKAy mouse model assessed as reduction of plasma triglyceride level at 1 mg/kg, po QD for 4 days; assay type: functional; set-up: scale not given: the % may be the effect or the level left
[8] = organism: Homo sapiens; test: Selectivity of human PPARalpha over human PPARgamma
[9] = test system: Mus musculus; test: Hypolipidemic effect on diabetic KKAy mouse model assessed as reduction of VLDL cholesterol level at 1 mg/kg, po QD for 4 days; assay type: functional; set-up: scale not given: the % may be the effect or the level left
[10] = test system: Mus musculus; test: Hypolipidemic effect on diabetic KKAy mouse model assessed as reduction of VLDL cholesterol level at 3 mg/kg, po QD for 4 days; assay type: functional; set-up: scale not given: the % may be the effect or the level left
[11] = test system: Mus musculus; test: Hypolipidemic effect on diabetic KKAy mouse model assessed as reduction of plasma triglyceride level at 3 mg/kg, po QD for 4 days; assay type: functional; set-up: scale not given: the % may be the effect or the level left
[12] = target: T3, Peroxisome proliferator-activated receptor delta (Mus musculus) (UniProt P35396); test: Agonist activity at mouse PPARdelta at 10 uM by transactivation assay; assay type: functional
T3 sequence (whole entry): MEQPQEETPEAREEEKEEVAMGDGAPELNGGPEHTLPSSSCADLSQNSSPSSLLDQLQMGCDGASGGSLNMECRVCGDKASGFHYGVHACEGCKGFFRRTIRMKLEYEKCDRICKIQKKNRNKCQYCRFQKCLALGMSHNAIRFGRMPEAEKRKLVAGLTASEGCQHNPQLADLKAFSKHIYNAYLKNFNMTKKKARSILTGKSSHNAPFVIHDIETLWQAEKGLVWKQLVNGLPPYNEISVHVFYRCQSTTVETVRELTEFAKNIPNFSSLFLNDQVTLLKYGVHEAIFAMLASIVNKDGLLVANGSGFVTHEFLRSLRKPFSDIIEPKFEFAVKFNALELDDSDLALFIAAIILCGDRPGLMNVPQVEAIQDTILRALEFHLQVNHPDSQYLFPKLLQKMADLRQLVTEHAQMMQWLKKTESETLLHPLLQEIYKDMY

[13] = test system: Mus musculus; test: as §1; assay type: functional; remark: listed apart in the source
[14] = target: T4, Peroxisome proliferator-activated receptor gamma (Homo sapiens) (UniProt P37231); test: Agonist activity at human PPARgamma expressed in monkey CV1 cells at 10 uM by transactivation assay; assay type: functional, cell-based; settings: CV-1
T4 sequence (whole entry): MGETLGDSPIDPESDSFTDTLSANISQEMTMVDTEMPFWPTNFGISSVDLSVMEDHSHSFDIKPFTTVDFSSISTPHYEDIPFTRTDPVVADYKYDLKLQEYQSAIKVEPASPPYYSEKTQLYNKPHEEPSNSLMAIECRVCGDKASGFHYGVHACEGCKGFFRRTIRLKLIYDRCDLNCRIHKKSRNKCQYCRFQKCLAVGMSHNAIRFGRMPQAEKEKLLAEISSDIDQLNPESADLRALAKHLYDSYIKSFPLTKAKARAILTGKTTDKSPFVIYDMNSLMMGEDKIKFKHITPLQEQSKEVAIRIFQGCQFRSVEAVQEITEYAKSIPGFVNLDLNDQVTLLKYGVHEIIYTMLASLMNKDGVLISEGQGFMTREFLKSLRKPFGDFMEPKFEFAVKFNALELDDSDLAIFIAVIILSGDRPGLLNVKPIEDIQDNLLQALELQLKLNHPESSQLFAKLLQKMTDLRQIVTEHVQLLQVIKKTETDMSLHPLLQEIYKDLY

[15] = target: T5, Peroxisome proliferator-activated receptor alpha (Homo sapiens) (UniProt Q07869); test: Agonist activity at human PPARalpha expressed in monkey CV1 cells at 10 uM by transactivation assay; assay type: functional, cell-based; settings: CV-1
T5 sequence (whole entry): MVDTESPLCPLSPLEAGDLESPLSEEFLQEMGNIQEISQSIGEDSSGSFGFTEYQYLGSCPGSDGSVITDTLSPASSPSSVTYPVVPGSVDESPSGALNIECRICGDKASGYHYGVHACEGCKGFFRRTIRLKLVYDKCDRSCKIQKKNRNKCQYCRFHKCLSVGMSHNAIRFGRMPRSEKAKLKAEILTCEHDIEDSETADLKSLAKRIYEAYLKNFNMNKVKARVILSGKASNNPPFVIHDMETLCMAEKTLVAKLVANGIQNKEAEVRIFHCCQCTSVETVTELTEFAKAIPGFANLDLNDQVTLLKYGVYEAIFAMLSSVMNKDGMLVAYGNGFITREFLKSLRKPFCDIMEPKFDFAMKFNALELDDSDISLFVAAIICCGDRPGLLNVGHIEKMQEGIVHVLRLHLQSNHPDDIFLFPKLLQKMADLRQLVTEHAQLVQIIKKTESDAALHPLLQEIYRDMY

[16] = target: T6, Peroxisome proliferator-activated receptor alpha (Homo sapiens, UniProt Q07869); test: Agonist activity at human PPARalpha expressed in monkey CV1 cells by transactivation assay; assay type: functional, cell-based, CV-1
T6 sequence (Q07869 whole entry): T5 sequence (whole entry)

[17] = target: T7, Peroxisome proliferator-activated receptor gamma (Homo sapiens, UniProt P37231)
T7 sequence (P37231 whole entry): T4 sequence (whole entry)

[18] = target: T8, Peroxisome proliferator-activated receptor alpha (Mus musculus, UniProt P23204); test: Agonist activity at mouse PPARalpha by transactivation assay; assay type: functional
T8 sequence (P23204 whole entry): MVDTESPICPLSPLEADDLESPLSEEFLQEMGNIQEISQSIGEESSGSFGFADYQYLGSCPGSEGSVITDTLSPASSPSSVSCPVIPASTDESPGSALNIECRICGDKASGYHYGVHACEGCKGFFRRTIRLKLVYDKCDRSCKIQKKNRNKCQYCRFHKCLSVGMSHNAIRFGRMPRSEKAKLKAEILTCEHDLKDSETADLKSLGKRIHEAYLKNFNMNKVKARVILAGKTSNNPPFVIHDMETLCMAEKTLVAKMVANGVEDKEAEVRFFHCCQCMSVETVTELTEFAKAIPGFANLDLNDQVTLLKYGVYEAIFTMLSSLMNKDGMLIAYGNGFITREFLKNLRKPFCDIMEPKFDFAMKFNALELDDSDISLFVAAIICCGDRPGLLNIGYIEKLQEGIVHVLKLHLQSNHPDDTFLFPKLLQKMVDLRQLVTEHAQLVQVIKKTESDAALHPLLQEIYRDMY

[19] = target: T9, Peroxisome proliferator-activated receptor gamma (Mus musculus, UniProt P37238); test: Agonist activity at mouse PPARgamma by transactivation assay; assay type: functional
T9 sequence (P37238 whole entry): T1 sequence (whole entry)

[20] = target: T10, Peroxisome proliferator-activated receptor delta (Homo sapiens, UniProt Q03181); test: Agonist activity at human PPARdelta expressed in monkey CV1 cells by transactivation assay; assay type: functional, cell-based, CV-1
T10 sequence (Q03181 whole entry): T2 sequence (whole entry)

[21] = test system: Mus musculus; test: Hypoglycemic effect on diabetic KKAy mouse model assessed as reduction of plasma glucose level at 300 mg/kg, po QD for 4 days; assay type: functional; set-up: scale not given: the % may be the effect or the level left
[22] = test system: Mus musculus; test: Hypolipidemic effect on diabetic KKAy mouse model assessed as reduction of VLDL cholesterol level at 300 mg/kg, po QD for 4 days; assay type: functional; set-up: scale not given: the % may be the effect or the level left
[23] = test system: Mus musculus; test: Hypolipidemic effect on diabetic KKAy mouse model assessed as reduction of plasma triglyceride level at 300 mg/kg, po QD for 4 days; assay type: functional; set-up: scale not given: the % may be the effect or the level left
[24] = test system: Mus musculus; test: Hypolipidemic effect on diabetic KKAy mouse model assessed as increase in HDL cholesterol level at 300 mg/kg, po QD for 4 days; assay type: functional

Ratio EC50 [1]: > 300 | Activity [4]: 21% | Activity [5]: 0% | Ratio EC50 [8]: > 300 | Activity [12]: 6%
SMILES: Cc1oc(-c2ccccc2)nc1CCCC[C@H]1CO[C@@](C)(C(=O)O)OC1
Activity [2]: 36% | Activity [3]: 13% | Activity [6]: 12% | Activity [7]: 46% | Activity [9]: 29% | Activity [10]: 49% | Activity [11]: 56% | Activity [13]: 55%

Activity [5]: 0% | Activity [14]: 10% | Activity [15]: 5%
SMILES: Cc1oc(-c2ccccc2)nc1Cc1ccc([C@H]2CO[C@@](C)(C(=O)O)OC2)cc1

EC50 [16]: 0.03 µM | Activity [5]: 6% | EC50 [17]: 10 µM
SMILES: Cc1oc(-c2ccccc2)nc1CCCC[C@H]1CO[C@@](CC(C)C)(C(=O)O)OC1

EC50 [16]: 0.03 µM | EC50 [18]: 0.1 µM | Activity [5]: 19% | EC50 [19]: 10 µM | EC50 [17]: 10 µM | Activity [12]: 7%
SMILES: CC[C@]1(C(=O)O)OC[C@@H](CCCCc2nc(-c3ccccc3)oc2C)CO1
Activity [3]: 18% | Activity [10]: 26% | Activity [11]: 52% | Activity [13]: 5%

EC50 [16]: 3 µM | Activity [5]: 7% | Activity [14]: 12%
SMILES: Cc1oc(-c2ccccc2)nc1Cc1cccc([C@H]2CO[C@@](C)(C(=O)O)OC2)c1

Activity [5]: 3% | Activity [14]: 0% | Activity [15]: 8%
SMILES: Cc1oc(-c2ccccc2)nc1CCCC[C@H]1CO[C@@H](C(=O)O)OC1

EC50 [16]: 3 µM | Activity [5]: 28% | EC50 [17]: 1 µM
SMILES: Cc1oc(-c2ccccc2)nc1Cc1cccc(C[C@H]2CO[C@@](C)(C(=O)O)OC2)c1

SMILES: Cc1oc(-c2ccccc2)nc1CCCCCCOC(C)(C)C(=O)O
EC50 [20]: 30 µM | Activity [7]: 32% | EC50 [17]: 0.3 µM

Activity [5]: 12% | Activity [14]: 2% | Activity [15]: 8%
SMILES: Cc1oc(-c2ccccc2)nc1CCC[C@H]1CO[C@@](C)(C(=O)O)OC1

SMILES: CC(C)OC(=O)C(C)(C)Oc1ccc(C(=O)c2ccc(Cl)cc2)cc1 [FENOFIBRATE]
Activity [21]: 25% | Activity [22]: 31% | Activity [23]: 40% | Activity [24]: 17%

EC50 [17]: 100 µM
SMILES: CC(C)(Oc1ccc(CCNC(=O)c2ccc(Cl)cc2)cc1)C(=O)O [BEZAFIBRATE]

EC50 [16]: 3 µM | Activity [5]: 10% | EC50 [17]: 30 µM
SMILES: Cc1oc(-c2ccccc2)nc1CCCC[C@H]1CO[C@](C)(C(=O)O)OC1

SMILES: Cc1oc(-c2ccccc2)nc1CCCCC[C@H]1CO[C@@](C)(C(=O)O)OC1
EC50 [16]: 0.1 µM | Activity [5]: 34% | EC50 [17]: 0.3 µM

EC50 [16]: 3 µM | Activity [5]: 38% | EC50 [17]: 3 µM
SMILES: Cc1oc(-c2ccccc2)nc1Cc1ccc(C[C@H]2CO[C@@](C)(C(=O)O)OC2)cc1
